What all share (test): KINOMEscan
Format in all cases: binding

The target of assay [1] is T1, CHEK1 (Homo sapiens, UniProt O14757).
T1 construct: purchased Eurofins DiscoverX, LLC; host or cells: E. coli (T7 phage) or HEK-293
T1 sequence (O14757 1-476): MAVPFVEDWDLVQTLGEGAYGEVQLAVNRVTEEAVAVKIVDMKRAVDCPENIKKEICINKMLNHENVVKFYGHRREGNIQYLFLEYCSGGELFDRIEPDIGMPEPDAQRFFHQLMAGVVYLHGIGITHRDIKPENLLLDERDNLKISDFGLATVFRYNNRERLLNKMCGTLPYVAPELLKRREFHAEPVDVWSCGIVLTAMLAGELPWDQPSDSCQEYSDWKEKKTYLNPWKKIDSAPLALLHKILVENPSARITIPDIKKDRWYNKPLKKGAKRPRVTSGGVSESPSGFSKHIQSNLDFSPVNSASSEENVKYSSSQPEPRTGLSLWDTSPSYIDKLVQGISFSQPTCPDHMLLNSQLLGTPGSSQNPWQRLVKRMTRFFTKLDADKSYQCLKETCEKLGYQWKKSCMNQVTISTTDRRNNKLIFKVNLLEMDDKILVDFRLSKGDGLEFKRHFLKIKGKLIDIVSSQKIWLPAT

The target in assay [2] is T2, CSNK1G2 (Homo sapiens, UniProt P78368).
T2 construct: purchased Eurofins DiscoverX, LLC; host or cells: E. coli (T7 phage) or HEK-293

Assay [3] deals with T3, IKKβ (Homo sapiens, UniProt O14920).
T3 construct: purchased Eurofins DiscoverX, LLC; host or cells: E. coli (T7 phage) or HEK-293
T3 sequence (O14920 1-756): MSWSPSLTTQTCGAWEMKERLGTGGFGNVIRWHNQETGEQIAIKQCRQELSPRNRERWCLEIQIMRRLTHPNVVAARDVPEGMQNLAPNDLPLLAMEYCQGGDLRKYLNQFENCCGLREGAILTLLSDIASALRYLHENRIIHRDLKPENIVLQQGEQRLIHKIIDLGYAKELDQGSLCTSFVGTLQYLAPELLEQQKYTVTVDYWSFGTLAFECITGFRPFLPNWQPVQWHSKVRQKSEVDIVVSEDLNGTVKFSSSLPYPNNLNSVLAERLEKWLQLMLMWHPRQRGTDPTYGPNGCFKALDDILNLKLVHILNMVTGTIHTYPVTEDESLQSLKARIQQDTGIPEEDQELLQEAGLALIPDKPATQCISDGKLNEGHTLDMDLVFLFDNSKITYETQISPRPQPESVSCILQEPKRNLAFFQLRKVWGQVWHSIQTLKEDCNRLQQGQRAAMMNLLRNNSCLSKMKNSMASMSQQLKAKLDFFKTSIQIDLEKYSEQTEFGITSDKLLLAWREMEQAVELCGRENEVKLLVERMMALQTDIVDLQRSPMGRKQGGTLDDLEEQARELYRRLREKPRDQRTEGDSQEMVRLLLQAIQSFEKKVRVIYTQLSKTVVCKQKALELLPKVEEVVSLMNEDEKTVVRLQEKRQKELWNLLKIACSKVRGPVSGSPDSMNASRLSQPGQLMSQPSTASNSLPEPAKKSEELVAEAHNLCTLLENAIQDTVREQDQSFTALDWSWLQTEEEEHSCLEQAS

The target in assay [4] is T4, CDK2 (Homo sapiens, UniProt P24941).
T4 construct: purchased Eurofins DiscoverX, LLC; host or cells: E. coli BL21-derived (T7 phage) or HEK-293

Assay [5] has as its target T5, PDGFRB (Homo sapiens, UniProt P09619).
T5 construct: purchased Eurofins DiscoverX, LLC; host or cells: E. coli BL21-derived host (T7 phage) or HEK-293

For assay [6], the target named is T6, p38α (Homo sapiens, UniProt Q16539).
T6 construct: purchased Eurofins DiscoverX, LLC; host or cells: E. coli (BL21-derived, T7 phage) or HEK-293

For assay [7], the target named is T7, ADCK3 (Homo sapiens, UniProt Q8NI60).
T7 construct: purchased Eurofins DiscoverX, LLC; host or cells: E. coli BL21-derived (T7 phage) or HEK-293

The target of assay [8] is T8, FGFR2 (Homo sapiens, UniProt P21802).
T8 construct: purchased Eurofins DiscoverX, LLC; host or cells: E. coli (T7 phage) or HEK-293

For assay [9], the target named is T9, TYK2(JH1domain-catalytic) (Homo sapiens, UniProt P29597).
T9 construct: TYK2(JH1domain-; purchased Eurofins DiscoverX, LLC; host or cells: E. coli BL21-derived host (T7 phage) or HEK-293
T9 sequence (P29597 897-1176 limits assumed): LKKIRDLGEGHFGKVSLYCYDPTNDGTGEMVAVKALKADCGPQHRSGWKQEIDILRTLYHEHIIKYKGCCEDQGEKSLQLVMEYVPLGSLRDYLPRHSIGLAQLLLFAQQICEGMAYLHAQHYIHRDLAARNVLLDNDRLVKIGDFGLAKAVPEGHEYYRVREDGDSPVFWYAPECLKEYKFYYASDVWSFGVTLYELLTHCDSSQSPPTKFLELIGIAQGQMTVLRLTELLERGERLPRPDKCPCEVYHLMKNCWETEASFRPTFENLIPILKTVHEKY

Assay [10] concerns the target T10, PIK3CA (Homo sapiens, UniProt P42336).
T10 construct: purchased Eurofins DiscoverX, LLC; host or cells: E. coli BL21-derived host (T7 phage) or HEK-293

Each structure is given as a SMILES string.

The results in this text go back to article PMC12406203 (Journal of Medicinal Chemistry, 2025).

T2 sequence (P78368 whole entry): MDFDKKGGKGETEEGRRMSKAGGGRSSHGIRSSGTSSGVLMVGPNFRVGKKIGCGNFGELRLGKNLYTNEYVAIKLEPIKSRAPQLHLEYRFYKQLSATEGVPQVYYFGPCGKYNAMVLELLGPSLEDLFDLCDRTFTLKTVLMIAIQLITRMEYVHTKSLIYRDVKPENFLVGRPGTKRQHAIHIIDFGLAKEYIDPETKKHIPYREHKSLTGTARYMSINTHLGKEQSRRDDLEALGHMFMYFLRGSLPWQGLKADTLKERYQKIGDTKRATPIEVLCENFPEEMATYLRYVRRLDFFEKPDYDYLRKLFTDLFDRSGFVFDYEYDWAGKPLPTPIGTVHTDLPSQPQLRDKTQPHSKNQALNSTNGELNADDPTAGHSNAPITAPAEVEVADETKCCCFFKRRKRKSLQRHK
T6 sequence (Q16539 whole entry): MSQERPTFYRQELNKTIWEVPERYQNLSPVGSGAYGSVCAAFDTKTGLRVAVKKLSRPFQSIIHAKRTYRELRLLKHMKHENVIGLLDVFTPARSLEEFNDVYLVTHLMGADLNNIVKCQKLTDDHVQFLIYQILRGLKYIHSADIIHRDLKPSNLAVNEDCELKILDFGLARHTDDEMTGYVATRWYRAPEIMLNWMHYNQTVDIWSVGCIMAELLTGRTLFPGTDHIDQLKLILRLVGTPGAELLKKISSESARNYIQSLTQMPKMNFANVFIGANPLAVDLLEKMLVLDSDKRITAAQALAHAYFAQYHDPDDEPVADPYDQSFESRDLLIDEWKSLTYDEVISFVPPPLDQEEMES
T10 sequence (P42336 whole entry): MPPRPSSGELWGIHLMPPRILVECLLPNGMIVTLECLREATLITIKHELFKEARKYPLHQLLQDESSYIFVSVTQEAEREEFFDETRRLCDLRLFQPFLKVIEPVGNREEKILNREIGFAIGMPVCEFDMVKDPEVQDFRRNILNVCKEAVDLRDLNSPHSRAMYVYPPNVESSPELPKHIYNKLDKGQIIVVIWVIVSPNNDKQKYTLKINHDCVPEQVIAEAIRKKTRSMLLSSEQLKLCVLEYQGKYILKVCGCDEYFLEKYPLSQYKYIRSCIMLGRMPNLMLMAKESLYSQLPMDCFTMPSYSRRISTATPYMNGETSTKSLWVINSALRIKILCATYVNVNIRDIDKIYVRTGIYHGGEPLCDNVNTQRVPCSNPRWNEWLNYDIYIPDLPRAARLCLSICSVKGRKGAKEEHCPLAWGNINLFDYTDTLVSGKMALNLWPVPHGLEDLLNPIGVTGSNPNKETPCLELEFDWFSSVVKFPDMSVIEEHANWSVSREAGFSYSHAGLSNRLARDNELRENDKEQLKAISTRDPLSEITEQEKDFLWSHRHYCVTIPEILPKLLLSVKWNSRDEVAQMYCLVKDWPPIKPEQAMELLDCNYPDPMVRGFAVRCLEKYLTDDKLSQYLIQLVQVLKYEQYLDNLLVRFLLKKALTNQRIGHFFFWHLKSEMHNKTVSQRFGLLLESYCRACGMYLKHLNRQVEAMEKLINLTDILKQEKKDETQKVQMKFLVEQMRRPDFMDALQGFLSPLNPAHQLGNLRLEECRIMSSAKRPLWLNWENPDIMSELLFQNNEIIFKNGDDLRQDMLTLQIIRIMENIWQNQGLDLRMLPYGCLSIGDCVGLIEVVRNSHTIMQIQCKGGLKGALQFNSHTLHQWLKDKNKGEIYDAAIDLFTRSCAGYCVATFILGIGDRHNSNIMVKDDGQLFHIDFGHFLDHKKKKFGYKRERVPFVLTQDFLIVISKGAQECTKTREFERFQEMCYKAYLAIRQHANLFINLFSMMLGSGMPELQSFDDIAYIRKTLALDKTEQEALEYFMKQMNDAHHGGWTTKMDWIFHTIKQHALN
T7 sequence (Q8NI60 163-647): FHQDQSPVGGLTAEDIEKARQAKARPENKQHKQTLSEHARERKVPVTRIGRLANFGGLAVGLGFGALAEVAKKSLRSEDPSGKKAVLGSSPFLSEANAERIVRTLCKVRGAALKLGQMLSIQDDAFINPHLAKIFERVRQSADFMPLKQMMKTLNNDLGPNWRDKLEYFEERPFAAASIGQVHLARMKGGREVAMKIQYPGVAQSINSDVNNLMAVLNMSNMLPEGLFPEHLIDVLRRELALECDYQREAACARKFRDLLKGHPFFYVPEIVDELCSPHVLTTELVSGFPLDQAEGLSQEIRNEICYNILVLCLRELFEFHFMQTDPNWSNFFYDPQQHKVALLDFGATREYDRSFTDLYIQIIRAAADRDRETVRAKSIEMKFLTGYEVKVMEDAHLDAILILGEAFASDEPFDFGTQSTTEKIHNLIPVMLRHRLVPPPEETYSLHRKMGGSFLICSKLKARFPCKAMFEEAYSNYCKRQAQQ
T8 sequence (P21802 22-821): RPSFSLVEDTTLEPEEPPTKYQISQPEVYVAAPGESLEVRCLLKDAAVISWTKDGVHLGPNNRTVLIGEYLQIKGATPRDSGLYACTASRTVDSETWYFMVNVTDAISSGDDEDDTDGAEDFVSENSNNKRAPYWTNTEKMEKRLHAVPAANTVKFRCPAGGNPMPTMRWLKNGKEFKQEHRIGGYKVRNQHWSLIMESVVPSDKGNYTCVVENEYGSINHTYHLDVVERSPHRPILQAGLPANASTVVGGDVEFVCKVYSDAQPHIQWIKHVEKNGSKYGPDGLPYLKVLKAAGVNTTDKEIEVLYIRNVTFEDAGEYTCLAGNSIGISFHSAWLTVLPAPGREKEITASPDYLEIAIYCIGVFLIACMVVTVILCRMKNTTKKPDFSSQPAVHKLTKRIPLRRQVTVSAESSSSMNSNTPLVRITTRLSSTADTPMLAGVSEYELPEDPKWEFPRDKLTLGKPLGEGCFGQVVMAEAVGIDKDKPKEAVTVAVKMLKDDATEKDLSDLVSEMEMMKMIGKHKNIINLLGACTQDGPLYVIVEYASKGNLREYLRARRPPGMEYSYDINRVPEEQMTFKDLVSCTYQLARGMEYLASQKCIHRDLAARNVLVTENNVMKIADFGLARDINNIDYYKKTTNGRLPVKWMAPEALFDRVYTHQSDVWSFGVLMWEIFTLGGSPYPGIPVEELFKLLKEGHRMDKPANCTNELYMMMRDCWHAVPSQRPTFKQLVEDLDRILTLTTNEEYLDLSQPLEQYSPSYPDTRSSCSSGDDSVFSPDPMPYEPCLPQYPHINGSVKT
T5 sequence (P09619 33-1106): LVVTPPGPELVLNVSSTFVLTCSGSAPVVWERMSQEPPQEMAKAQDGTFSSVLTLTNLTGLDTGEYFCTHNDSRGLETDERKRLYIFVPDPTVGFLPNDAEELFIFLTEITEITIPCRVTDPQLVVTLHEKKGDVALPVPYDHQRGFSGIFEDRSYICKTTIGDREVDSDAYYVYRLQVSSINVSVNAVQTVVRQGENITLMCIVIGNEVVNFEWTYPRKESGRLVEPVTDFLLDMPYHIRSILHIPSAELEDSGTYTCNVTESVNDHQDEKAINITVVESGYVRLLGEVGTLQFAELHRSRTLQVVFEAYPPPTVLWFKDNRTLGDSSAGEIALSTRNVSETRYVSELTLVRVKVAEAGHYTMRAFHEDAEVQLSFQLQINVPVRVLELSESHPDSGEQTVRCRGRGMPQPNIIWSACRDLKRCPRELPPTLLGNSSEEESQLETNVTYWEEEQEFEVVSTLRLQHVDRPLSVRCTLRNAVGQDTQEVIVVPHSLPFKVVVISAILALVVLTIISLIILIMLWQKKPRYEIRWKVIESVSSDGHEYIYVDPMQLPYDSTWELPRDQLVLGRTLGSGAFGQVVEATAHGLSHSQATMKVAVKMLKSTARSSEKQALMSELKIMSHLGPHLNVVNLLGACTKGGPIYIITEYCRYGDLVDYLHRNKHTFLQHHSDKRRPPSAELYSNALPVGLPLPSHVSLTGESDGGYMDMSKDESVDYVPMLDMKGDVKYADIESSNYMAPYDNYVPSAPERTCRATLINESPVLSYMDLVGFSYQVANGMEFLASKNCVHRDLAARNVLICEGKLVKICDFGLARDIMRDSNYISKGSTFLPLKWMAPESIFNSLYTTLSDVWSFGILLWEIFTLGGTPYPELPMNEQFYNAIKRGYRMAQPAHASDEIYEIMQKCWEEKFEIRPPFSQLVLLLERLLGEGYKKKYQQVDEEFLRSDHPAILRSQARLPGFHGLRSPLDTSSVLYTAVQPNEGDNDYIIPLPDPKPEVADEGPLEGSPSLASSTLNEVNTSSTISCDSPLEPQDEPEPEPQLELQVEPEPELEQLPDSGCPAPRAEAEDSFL

With `CC(C)Cn1ncc2cc(Cc3ccc(F)cc3F)c(C(=O)NCCN(C)C)cc21` [Compound 94, 5-(2,4-Difluorobenzyl)-N-(2-(dimethylamino)ethyl)-1-isobutyl-1H-indazole-6-carboxamide], the “RA @ 1000nM” value in [1] was found to be 100%; in assay [2], 96%; in assay [3] it was 89%; in assay [4] it was 82%; in assay [5], 100%; in assay [6], 2.3%. In addition, the “RA @ 1000nM” value turned out to be 100% in [7], 95% in [8], 78% in assay [9] and 77% in assay [10]. Besides, the “RA @ 10000nM” value came out at 100% in assay [1]; 93% in assay [2]; 89% in assay [3]; 97% in [4]; 97% in [5]; 0.4% in [6]. The “RA @ 10000nM” value in assay [7] was determined as 100%; in assay [8], 100%; in [9], 79%; in [10] it was 95%.

Consider `CN(C)CCNC(=O)c1cc2c(cnn2CC2CCCCC2)cc1Cc1ccc(F)cc1F` [Compound 95, 1-(Cyclohexylmethyl)-5-(2,4-difluorobenzyl)-N-(2-(dimethylamino)ethyl)-1H-indazole-6-carboxamide], for which the “RA @ 1000nM” value in assay [1] was found to be 100%; in assay [2], 100%; in [3], 93%; in assay [4], 99%; in [5], 100%; in assay [6], 6.7%. The “RA @ 1000nM” value in assay [7] turned out to be 100%; in [8] it was 100%; in assay [9], 89%; in [10], 100%. In addition, the “RA @ 10000nM” value worked out at 100% in [1]; 98% in [2]; 80% in [3]; 100% in assay [4]; 96% in assay [5]; 0.1% in [6]. Further, the “RA @ 10000nM” value was determined as 81% in assay [7], 100% in assay [8], 75% in assay [9] and 100% in assay [10].
